We go through seven molecules from patent US20230127345A1, “SELENOGALACTOSIDE COMPOUNDS FOR THE PREVENTION AND TREATMENT OF DISEASES ASSOCIATED WITH GALECTIN AND THE USE THEREOF” (GALECTIN SCIENCES, LLC, priority 2016, published 2023).

Each structure is given as a SMILES string. pIC50: −log10 of the molar value.

Data set [1] addresses Gal-3/integrins (αVβ3, αVβ6, αMβ2) (Homo sapiens, UniProt P17931). The data set can be described thus: gal-3/integrin interaction ELISA assay. Type of data set: biochemical. As to conditions: compared with TD-139 (G240); FIG. 10, 11A-11C. An excerpt:
(§1) Experiments have been performed to evaluate the physical interaction of galectin proteins with these various biological ligands mediating cellular functions.

In another data set the test system is MCP-1. The data set can be described thus: In-vitro inflammatory model, MCP-1 in endotoxin stressed THP-1 monocytes. The note with it: THP-1 stimulated with endotoxin for 5 days. Type of data set: cell-based. The protocol: A model of macrophage polarization was set up, starting from THP-1 monocytes culture which is differentiated into inflammatory macrophages using PMA (Phorbol 12-myristate 13-acetate) for 2-4 days. Once differentiated (MO macrophages), the macrophages were induced with LPS or LPS and IFN-gamma for macrophage activation (M1) to inflammatory stage for 1-3 days. Array of cytokines and chemokines were analyzed to confirm the polarization of THP-1-derived macrophages to inflammatory stage. The impact of the anti-galectin 3 compounds on macrophage polarization was assessed first by monitoring cell viability using a colorimetric method (using a tetrazolium reagent) to determine the number of viable cells in proliferation or cytotoxicity assays (Promega, The CellTiter 96® AQueous One Solution Cell Proliferation Assay which contains a novel tetrazolium compound [3-(4,5-[…])-5-(3-carboxymethoxyphenyl)-2-(4-sulfophenyl)-2H-tetrazolium, inner salt; MTS] and an electron coupling reagent (phenazine ethosulfate; PES)) and inflammatory stage evaluated by a quantitatively measure of the chemokine Monocyte Chemoattractant Protein-1 (MCP-1/CCL2), a key protein that regulates migration and infiltration of monocytes/macrophages in cellular process of inflammation. Follow-up testing for the expression and secretion of other cytokines and chemokines were done for leading active compounds. […]

The test system of another data set is MCF-7 cells. The data set can be described thus: Cell culture viability, MCF-7. Type of data set: cell-based. As to conditions: MCF-7, exposed over 3 days in standard growth media. On the procedure: Procedure for MCF-7 Cells ([…]) was as follow:
1. MCF-7 cells were resuspended in culture media containing 4× Pen/Strep and 0.25% Fetal Bovine Serum (Gibco lot# 1202161). 2. 100 ul media was added with approximately 4,000-10,000 cells/well, passage # 5 up to 30) and cells were incubated for at least 24 hrs at 37° C. 3. Tested compound was diluted serially in assay media as above, usually at a range of 100 μg/ml to 20 ng/mL 4. […] serial diluted compound was added in duplicate to cells in assay plate. Final volume of each well was […], (containing 2× Pen/Strep, 0.25% FBS and compound as indicated 5. Cells were incubated 60-80 hours at 37° C. 6. […] of Promega Substrate [CellTiter 96 Aqueous One Solution] Reagent was added to each well. 7. Cells were incubated 37° C. for 4-8 hrs and read OD at 490 nm.
(§2) Cells were exposed to the G-625 over 3 days in standard growth media.

Data set [2] deals with T1, Galectin-3 (Homo sapiens, UniProt P17931). The data set can be described thus: ELISA of Galectin-3 binding inhibition (anti-Galectin-3 antibodies).
Description: as §1
Target sequence in this assay (P17931 whole entry): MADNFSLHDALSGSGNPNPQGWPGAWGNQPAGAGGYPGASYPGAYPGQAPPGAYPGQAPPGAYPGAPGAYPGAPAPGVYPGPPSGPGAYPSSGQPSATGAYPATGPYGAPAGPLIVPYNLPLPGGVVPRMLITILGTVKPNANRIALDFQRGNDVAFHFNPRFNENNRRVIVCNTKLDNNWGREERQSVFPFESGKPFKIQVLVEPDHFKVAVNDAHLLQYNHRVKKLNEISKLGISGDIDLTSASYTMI
Background: ELISA stands for enzyme-linked immunosorbent assay.

Data set [3] has as its target Galectin 1 and integrin aBV6 (Homo sapiens, UniProt P09382). As to the kind of experiment: ELISA format with pairs of galectins and integrins. As to conditions: FIG. 15. Type of data set: biochemical.
The target in data set [4] is Galectin-9 and integrin aMB2 (Homo sapiens, UniProt O00182). The data set can be described thus: ELISA format with pairs of galectins and integrins. Type of data set: biochemical. The note with it: FIG. 15.
Sequence of Galectin-9 and integrin aMB2 (O00182 whole entry, species assumed): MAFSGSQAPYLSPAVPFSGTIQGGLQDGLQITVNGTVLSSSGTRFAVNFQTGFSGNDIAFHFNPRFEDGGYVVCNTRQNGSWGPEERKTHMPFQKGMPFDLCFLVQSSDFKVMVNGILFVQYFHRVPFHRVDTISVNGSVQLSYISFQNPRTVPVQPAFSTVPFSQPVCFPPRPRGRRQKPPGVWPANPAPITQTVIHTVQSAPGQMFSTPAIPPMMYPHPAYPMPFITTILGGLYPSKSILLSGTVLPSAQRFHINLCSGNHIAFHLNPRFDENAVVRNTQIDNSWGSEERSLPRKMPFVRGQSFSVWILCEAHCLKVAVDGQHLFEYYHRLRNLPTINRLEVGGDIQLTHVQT
The test system of data set [5] is Galectin-3. As to the kind of experiment: Galectin-3 expression in TGFb1 stimulated LX-2 stellate cells, flow cytometry. The class given is cell-based. As to conditions: TGFb1, 5 days serum starved stimulated LX-2 cells. The text has this: TGFb1 stimulates hepatic stellate cells into the fibrogenesis pathway leading to secretion of collagen and other fibrosis biomarkers. […] While it is known that lactose has binding affinity to Gal-3, galactose lacks this affinity. […] The result confirmed this hypothesis.

For another data set, the system named is HTB-38 cells. The data set can be described thus: Cell culture viability, HTB-38. The class given is cell-based. As to conditions: HTB-38, exposed over 3 days in standard growth media. The protocol: Procedure for HTB-38 Cells ([…]) was as follow:
1. HTB-38 cells were resuspended in culture media containing 8 ng/ml h-IFN-gamma, 4× Pen/Strep and 10% Fetal Bovine Serum (Gibco lot# 1260930). 2. Cells were transferred at 100μl/well in assay plate (4,000-10,000 cells/well, passage# 4-30). 3. Tested compound was diluted serially in assay media as above, usually in range of 100 μg/ml to 20 ng/mL 4. 100 μl/well serial diluted compound was added in duplicate to cells. Final volume of each well was 200 μl, containing 4 ng/ml h-IFN-gamma, 2× Pen/Strep, 5. Cells were Incubate 60-90 hours at 37° C. 6. 20 μl of Promega Substrate [CellTiter 96 Aqueous One Solution] Reagent was added to each well. 7. Cells were incubated at 37° C. for 4-8 hrs and read OD at 490 nm.
as §2

Data set [6] has as its target T1, Galectin-3. The data set can be described thus: Fluorescent polarization assay with fluorescent ligand. The note with it: for inhibition of Galectin-3 CRD specific fluorescent-ligand: Fluorescent polarization, inhibition curves. Type of data set: binding.
Target sequence in this assay (P17931 whole entry): as the sequence (P17931 whole entry) above
Data set [7] deals with gal-3 with Integrin (aMB2) (Homo sapiens, UniProt P17931). The data set can be described thus: gal-3/integrin interaction ELISA, Integrin (aMB2). As to conditions: FIG. 11D and 11E. Type of data set: biochemical.
Sequence of gal-3 with Integrin (aMB2) (P17931 whole entry): as above
The conditions of data set [8]: pulmonary administration; cited from earlier work.
Data set [9] addresses T1, Galectin-3. As to conditions: cited from earlier work.
Target sequence in this assay (P17931 whole entry, species assumed): as the sequence (P17931 whole entry) above

Sequence of Gal-3/integrins (αVβ3, αVβ6, αMβ2) (P17931 2-250 limits assumed): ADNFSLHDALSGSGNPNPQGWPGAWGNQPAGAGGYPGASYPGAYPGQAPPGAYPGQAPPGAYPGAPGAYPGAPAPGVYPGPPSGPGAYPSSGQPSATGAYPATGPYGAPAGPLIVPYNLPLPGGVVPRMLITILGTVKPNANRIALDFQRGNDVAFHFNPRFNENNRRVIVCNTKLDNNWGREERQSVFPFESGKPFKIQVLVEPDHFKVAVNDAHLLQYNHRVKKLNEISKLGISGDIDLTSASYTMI
Sequence of Galectin 1 and integrin aBV6 (P09382 whole entry, species assumed): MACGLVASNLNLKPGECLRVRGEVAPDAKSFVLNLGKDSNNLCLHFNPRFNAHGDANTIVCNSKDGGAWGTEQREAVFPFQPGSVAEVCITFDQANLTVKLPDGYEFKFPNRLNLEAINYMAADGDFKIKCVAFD

The term pIC50 denotes the IC50 on a negative log10 scale, so that one unit is a factor of ten. Read a low pIC50 as a large IC50. Take `OC[C@H]1O[C@@H]([Se][C@@H]2O[C@H](CO)[C@H](O)[C@H](n3cc(-c4cccc(F)c4)nn3)[C@H]2O)[C@H](O)[C@@H](n2cc(-c3cccc(F)c3)nn2)[C@H]1O` [G-625, beta-D-Galactopyranoside, 3-deoxy-3-(4-(3-fluorophenyl)-1H-1,2,3-triazol-1-yl)-beta-D-galactopyranosyl 3-deoxy-3-(4-(3-fluorophenyl)-1H-1,2,3-triazol-1-yl)-1-seleno-]: the “inhibition of Gal-3/integrins” value in data set [1] is “more potent inhibitor of Gal-3/integrins than TD-139 (G240)”. In addition, the “secretion of MCP-1” value with MCP-1 was “inhibitory effect on the inflammatory stage by reducing the secretion of MCP-1”. For the same molecule, the “cytotoxicity (cell culture viability)” value in the data set on MCF-7 cells and with HTB-38 cells was “no cytotoxicity” in each case. The negative logarithm of the IC50 (pIC50) on Galectin-3 [2] was 7.84; on Galectin-3 [6] it was 6.59. The “inhibition of interaction between Galectin 1 and integrin aBV6” value in data set [3] is “significantly inhibited”. In addition, in data set [4], the “inhibition of interaction between Galectin-9 and integrin aMB2” value is “significantly inhibited”. Also, the galectin-3 expression entry is “enhanced activity of G-625 versus G-240” in the data set with Galectin-3 [5] and “inhibition of galectin-3 expression” in the data set with Galectin-3 [5] (listed as G625). Moreover, at Galectin-3 [6], the “inhibition of Galectin-3 CRD specific fluorescent-ligand” value was “twice better inhibitor then G-240 (TD-139)”.

In the case of `O=C[C@H](O)[C@@H](O)[C@@H](O)[C@H](O)CO` [Galactose, reference compound], the galectin-3 expression result in the data set on Galectin-3 [5] is reported as “should not have any effect”.

For `OCC1OC([Se][Se]C2OC(CO)C(O)C(n3cc(-c4cccc(F)c4)nn3)C2O)C(O)C(n2cc(-c3cccc(F)c3)nn2)C1O` (stereo not shown) [G-626], the “secretion of MCP-1” value in the data set with MCP-1 was “inhibitory effect on the inflammatory stage by reducing the secretion of MCP-1”. Also, the pIC50 was 5.93 at Galectin-3 [2] and 5.28 against Galectin-3 [6]. Besides, the “inhibition of Galectin-3 CRD specific fluorescent-ligand” value at Galectin-3 [6] is “showed an inhibitory activity”.

For the molecule `OC[C@H]1O[C@@H](O[C@H]2[C@H](O)[C@@H](O)C(O)O[C@@H]2CO)[C@H](O)[C@@H](O)[C@H]1O` (stereo partly shown) [Lactose, reference compound], the galectin-3 expression entry with Galectin-3 [5] is on record as “would have effect (at relatively high concentrations)”.

For the molecule `OC[C@H]1O[C@@H]([Se]Cc2ccc(F)c(F)c2)[C@H](O)[C@@H](n2cc(-c3cccc(F)c3)nn2)[C@H]1O` [G-656], in [7], the “inhibition of the interaction of gal-3 with integrin” value is listed as “significantly inhibit”.

With `O=C(C[Se][C@@H]1O[C@H](CO)[C@H](O)[C@H](n2cc(-c3cccc(F)c3)nn2)[C@H]1O)c1ccc(F)c(F)c1` [G-662], the “inhibition of the interaction of gal-3 with integrin” value in [7] is recorded as “significantly inhibit”. Further, on Galectin-3 [6], the “inhibition of Galectin-3 CRD specific fluorescent-ligand” value is on record as “shown to inhibit the Gal-3 binding”.

On to `OC[C@H]1O[C@@H](S[C@@H]2O[C@H](CO)[C@H](O)[C@H](n3cc(-c4cccc(F)c4)nn3)[C@H]2O)[C@H](O)[C@@H](n2cc(-c3cccc(F)c3)nn2)[C@H]1O` [TD-139, beta-D-Galactopyranoside, 3-deoxy-3-(4-(3-fluorophenyl)-1H-1,2,3-triazol-1-yl)-beta-D-galactopyranosyl 3-deoxy-3-(4-(3-fluorophenyl)-1H-1,2,3-triazol-1-yl)-1-thio-], for which, in data set [8], the “efficacy in mouse model of lung fibrosis” value is listed as “effective”. Also, the “binding to galectin 3” value on Galectin-3 [9] was “reported to bind to galectin 3”.
